For experiment [1], the target named is T1, panel of 442 kinases (Homo sapiens, UniProt Q04759).
T1 construct: purchased KINOMEscan
It counts as binding. The conditions noted are these: Compound Concentration 10 µM. The text has this: (§1) We assessed the selectivity of members of this scaffold using the KINOMEscan methodology across a near comprehensive panel of 442 kinases [[18,27]].

Experiment [2] deals with T2, panel of 442 kinases (Homo sapiens, UniProt Q8WXR4).
T2 construct: purchased KINOMEscan
T2 sequence (Q8WXR4 1-1341): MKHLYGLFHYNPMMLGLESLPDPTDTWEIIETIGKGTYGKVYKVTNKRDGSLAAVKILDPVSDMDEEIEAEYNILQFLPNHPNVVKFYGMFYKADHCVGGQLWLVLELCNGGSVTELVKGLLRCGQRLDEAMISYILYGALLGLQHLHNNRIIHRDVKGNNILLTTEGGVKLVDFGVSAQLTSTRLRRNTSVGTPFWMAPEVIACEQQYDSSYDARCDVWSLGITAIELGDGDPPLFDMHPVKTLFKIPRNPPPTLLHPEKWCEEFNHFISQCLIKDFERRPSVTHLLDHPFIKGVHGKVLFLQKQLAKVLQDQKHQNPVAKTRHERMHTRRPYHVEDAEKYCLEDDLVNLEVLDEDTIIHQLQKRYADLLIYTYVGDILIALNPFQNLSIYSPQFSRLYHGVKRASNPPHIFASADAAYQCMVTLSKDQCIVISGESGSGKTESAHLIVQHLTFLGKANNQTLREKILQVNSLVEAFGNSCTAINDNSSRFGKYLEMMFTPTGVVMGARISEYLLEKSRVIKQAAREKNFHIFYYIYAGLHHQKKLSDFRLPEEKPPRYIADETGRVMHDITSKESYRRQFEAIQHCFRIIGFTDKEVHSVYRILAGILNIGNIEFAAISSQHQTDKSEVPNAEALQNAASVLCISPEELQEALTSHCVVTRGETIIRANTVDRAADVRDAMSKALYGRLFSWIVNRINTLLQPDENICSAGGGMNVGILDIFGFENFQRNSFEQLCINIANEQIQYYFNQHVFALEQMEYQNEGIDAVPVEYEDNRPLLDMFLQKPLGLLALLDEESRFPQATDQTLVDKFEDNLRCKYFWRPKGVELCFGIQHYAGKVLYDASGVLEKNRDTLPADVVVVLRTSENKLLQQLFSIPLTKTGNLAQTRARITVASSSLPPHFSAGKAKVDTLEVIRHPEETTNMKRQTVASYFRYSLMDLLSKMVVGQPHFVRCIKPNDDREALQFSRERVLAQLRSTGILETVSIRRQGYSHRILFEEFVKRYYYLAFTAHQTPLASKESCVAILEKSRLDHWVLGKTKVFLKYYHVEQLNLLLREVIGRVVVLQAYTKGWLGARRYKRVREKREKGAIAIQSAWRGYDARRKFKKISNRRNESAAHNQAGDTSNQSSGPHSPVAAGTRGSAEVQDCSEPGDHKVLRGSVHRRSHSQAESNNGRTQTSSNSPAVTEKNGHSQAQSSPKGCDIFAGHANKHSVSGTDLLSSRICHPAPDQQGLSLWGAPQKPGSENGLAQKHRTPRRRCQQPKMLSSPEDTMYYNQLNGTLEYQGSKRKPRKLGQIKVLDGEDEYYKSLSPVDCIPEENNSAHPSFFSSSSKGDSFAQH
It counts as binding. The conditions noted are these: Compound Concentration 10 µM.
Text: as §1

T1 sequence (Q04759 whole entry): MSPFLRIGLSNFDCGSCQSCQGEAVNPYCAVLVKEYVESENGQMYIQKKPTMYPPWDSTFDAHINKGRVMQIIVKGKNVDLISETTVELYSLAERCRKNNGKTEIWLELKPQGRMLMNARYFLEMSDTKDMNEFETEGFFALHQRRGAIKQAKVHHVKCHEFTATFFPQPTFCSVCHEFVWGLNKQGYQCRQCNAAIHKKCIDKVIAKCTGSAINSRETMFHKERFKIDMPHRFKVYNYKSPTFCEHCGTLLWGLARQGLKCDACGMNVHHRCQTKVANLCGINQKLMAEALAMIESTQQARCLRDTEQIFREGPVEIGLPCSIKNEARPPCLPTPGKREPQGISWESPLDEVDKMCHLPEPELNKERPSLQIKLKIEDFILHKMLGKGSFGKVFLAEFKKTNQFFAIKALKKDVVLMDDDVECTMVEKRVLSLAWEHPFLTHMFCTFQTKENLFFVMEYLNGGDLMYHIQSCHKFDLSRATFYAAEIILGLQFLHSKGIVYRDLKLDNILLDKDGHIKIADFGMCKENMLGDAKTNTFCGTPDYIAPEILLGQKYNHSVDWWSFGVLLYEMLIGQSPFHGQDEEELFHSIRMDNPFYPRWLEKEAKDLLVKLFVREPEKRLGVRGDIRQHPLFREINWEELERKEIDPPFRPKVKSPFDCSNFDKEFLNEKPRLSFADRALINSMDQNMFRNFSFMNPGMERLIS

On to `COc1cc(C(=O)N2CCC(N3CCN(C)CC3)CC2)ccc1Nc1ncc2c(n1)N(C)c1ccccc1C(=O)N2C` [15 (LRRK2-IN-1)], for which the “KINOMEscan: PRKCQ” value at panel of 442 kinases [1] was 100. Further, at panel of 442 kinases [2], the “KINOMEscan: MYO3B” value turned out to be 83.
Take `COc1cc(C(=O)N2CCC(N3CCN(C)CC3)CC2)ccc1Nc1ncc2c(n1)N1CCc3cccc(c31)C(=O)N2C` [Compound 24]: the “KINOMEscan: MYO3B” value at panel of 442 kinases [2] came to 76.
As for `COc1cc(C(=O)N2CCC(N3CCN(C)CC3)CC2)ccc1Nc1ncc2c(n1)N(C1CCCC1)c1ccccc1C(=O)N2C` [Compound 25, 11-cyclopentyl-2-((2-methoxy-4-(4-(4-methylpiperazin-1-yl)piperidine-1-carbonyl)phenyl)amino)-5-methyl-5H-benzo[e]pyrimido[5,4-b][1,4]diazepin-6(11H)-one], the “KINOMEscan: PRKCQ” value at panel of 442 kinases [1] amounted to 100. Also, the “KINOMEscan: MYO3B” value at panel of 442 kinases [2] was found to be 100.
In the case of `CCOc1cc(C(=O)N2CCC(N3CCN(C)CC3)CC2)ccc1Nc1ncc2c(n1)N(C1CCCC1)c1ccccc1C(=O)N2C` [Compound 26], the “KINOMEscan: PRKCQ” value on panel of 442 kinases [1] is given as 100. The “KINOMEscan: MYO3B” value on panel of 442 kinases [2] came out at 100.

The record behind these values is publication PMC3914206.
